Data set [1] concerns BHK-21 cells. The experiment in a line: MTT cell proliferation cytotoxicity assay. The class given is cell-based. The settings on record: for CC50 values times higher than IC50 values: BHK-21 CC50 versus in vitro IC50; for CC50: BHK-21 cells, MTT, 42 hours. As to the method: (§1) Cell-based assays were next performed to evaluate the biological activities of the selected compounds. The cytotoxicity of these compounds was first evaluated by using a MTT cell proliferation assay with a BHK-21 cell line (Table 1, fig 5), as we described previously. […] Therefore, these compounds were further investigated for their in vitro antiviral efficacy.
(§2) Cytotoxicity was measured using BHK-21 cells by a MTT cell proliferation assay using the 3-(4,5-dimethylthiazol-2-yl)-2,5-diphenyl tetrazolium bromide method (ATCC), as described previously.

Data set [2] is described as follows: MTT cell proliferation cytotoxicity assay. It is filed as cell-based. The settings on record: hamster; BHK-21 cells, MTT, 42 hours. As to the method: as §1, §2
For data set [3], the system named is WNV. The experiment in a line: Viral titer reduction assay. The settings on record: for Inhibition of the WNV titer: highest concentration tested (200 μM).
The target of data set [4] is T1, WNV MTase (West Nile virus, UniProt Q9Q6P4).
T1 construct: containing the N-terminal 300, 266, 265, and 272 amino acids of NS5 protein, respectively; made in house
T1 sequence (Q9Q6P4 2529-2794 limits assumed): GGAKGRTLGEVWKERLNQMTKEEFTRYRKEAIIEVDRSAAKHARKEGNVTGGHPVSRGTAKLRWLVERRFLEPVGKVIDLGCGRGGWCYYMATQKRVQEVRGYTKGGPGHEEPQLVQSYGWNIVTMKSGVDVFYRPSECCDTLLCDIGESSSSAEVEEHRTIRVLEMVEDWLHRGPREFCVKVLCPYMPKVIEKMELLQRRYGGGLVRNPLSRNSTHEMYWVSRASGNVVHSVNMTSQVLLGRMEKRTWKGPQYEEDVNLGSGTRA
The experiment in a line: biochemical.

The target of data set [5] is T1, WNV MTase. The experiment in a line: biochemical. It is filed as biochemical.
In data set [6] the target is T2, DENV2 MTase (Dengue virus type 2, UniProt P14340).
T2 construct: containing the N-terminal 300, 266, 265, and 272 amino acids of NS5 protein, respectively; made in house
T2 sequence (P14340 2493-2755 limits assumed): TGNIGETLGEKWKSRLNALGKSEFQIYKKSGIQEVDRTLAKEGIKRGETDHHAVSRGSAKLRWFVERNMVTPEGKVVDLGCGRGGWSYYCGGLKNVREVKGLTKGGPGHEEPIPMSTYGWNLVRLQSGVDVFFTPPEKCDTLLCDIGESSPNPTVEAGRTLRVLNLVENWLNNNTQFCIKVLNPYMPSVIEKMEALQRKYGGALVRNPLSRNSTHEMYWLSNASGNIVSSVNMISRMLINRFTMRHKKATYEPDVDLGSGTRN
It is filed as biochemical. The settings on record: read-out: IC50 N7.

Data set [7] has as its target T3, YFV MTase (Yellow fever virus, UniProt P03314). It is filed as biochemical. The settings on record: read-out: IC50 2’-O.
Data set [8] addresses T2, DENV2 MTase. The class given is biochemical. The settings on record: read-out: IC50 2’-O.
The target of data set [9] is T4, DENV3 MTase (Dengue virus type 3, UniProt Q6YMS4).
T4 construct: containing the N-terminal 300, 266, 265, and 272 amino acids of NS5 protein, respectively; made in house
T4 sequence (Q6YMS4 2492-2753): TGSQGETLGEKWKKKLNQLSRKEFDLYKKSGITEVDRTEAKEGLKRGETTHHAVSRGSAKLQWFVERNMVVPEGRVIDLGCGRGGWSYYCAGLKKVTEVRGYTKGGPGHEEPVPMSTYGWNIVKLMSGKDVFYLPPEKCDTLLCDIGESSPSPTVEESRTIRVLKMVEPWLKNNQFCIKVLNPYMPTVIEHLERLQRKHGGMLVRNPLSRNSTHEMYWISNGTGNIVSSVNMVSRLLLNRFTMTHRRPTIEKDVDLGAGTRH
The class given is biochemical. As to conditions: read-out: IC50 2’-O.

For data set [10], the target named is T4, DENV3 MTase. It is filed as biochemical. The settings on record: read-out: IC50 N7.
For data set [11], the target named is T3, YFV MTase. It is filed as biochemical. As to conditions: read-out: IC50 N7.

SMILES strings stand for the structures. Where two headings read alike, the source gives them in different places.

T3 sequence (P03314 2507-2771 limits assumed): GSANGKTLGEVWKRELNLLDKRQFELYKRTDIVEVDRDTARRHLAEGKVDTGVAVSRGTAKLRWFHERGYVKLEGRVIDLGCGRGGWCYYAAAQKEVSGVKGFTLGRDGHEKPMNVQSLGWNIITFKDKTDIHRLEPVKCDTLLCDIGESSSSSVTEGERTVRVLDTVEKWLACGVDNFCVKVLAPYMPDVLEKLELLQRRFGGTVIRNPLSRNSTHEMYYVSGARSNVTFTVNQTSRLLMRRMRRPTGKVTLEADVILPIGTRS

As usually defined, the CC50 is the concentration giving 50% cytotoxicity. A word on the EC50: it is the concentration at which the effect is half-maximal. The low end stands for an effect from little substance, the high end for a need for much substance. What is called IC50 is the concentration that gives 50% inhibition. As to `O=C1CN2CCN(CC2)CC(=O)Nc2ccc(cc2)S(=O)(=O)c2ccc(cc2)NC(=O)CN2CCN(CC2)CC(=O)Nc2ccc(cc2)S(=O)(=O)c2ccc(cc2)N1` [NSC 36806], the “CC50 values times higher than IC50 values” in data set [1] was ~10. Further, in data set [2], the half-maximal cytotoxic concentration (CC50) at 42 h worked out at 362 µM. For the same molecule, the EC50 in data set [3] (West Nile virus, 42 h) is > 200 µM. Further, the “Inhibition of the WNV titer” value in data set [3] is reported as “did not inhibit the WNV titer”. The values for the IC50 in [4], in data set [5] (IC50 N7 No CHAPS) and in data set [5] (IC50 N7 with CHAPS) were > 300 µM, 39 µM and 35.5 µM, respectively.

The molecule `O=C1c2cc([N+](=O)[O-])ccc2-c2ccc3c4ccc5c6c(ccc(c7ccc1c2c73)c64)C(=O)c1cc([N+](=O)[O-])ccc1-5` [NSC 51535] yielded a CC50 at 42 h in data set [2] of 5.7 µM. Also, the values for the 50% inhibitory concentration (IC50) in [4] (read-out: IC50 2’-O with CHAPS) and in data set [5] (read-out: IC50 N7 No CHAPS) were 5.6 µM and 3.9 µM, respectively.

As to `O=C1c2ccccc2C(=O)c2c1ccc(N1C(=O)c3ccccc3C1=O)c2-c1c(N2C(=O)c3ccccc3C2=O)ccc2c1C(=O)c1ccccc1C2=O` [NSC 115448], in data set [2], the 50% cytotoxic concentration (CC50) at 42 h was 155 µM. Further, the IC50 in data set [4] worked out at 16.6 µM; in data set [5] (IC50 N7 No CHAPS), 15.7 µM; in data set [5] (IC50 N7 with CHAPS) it was 225 µM.

In [2], `O=c1c2ccccc2c2ccccc2c(=O)n1-c1cc2c3ccccc3ccc2c2ccccc12` [NSC 128609] displayed a CC50 at 42 h of 192 µM. Also, the IC50 in data set [4] stood at 101 µM; in [5] (IC50 N7 No CHAPS), 40 µM.

For the molecule `COc1ccc2cc1Oc1ccc(cc1)CC1c3c(cc(OC)c4c3Oc3cc5c(cc3O4)CCNC5C2)CCN1C` (stereo not drawn) [NSC 181486], it took 4.8 µM to reach half-maximal cytotoxicity in data set [2] (CC50 at 42 h). The IC50 in data set [4] was > 300 µM; in data set [5] (IC50 N7 No CHAPS) it was 25.9 µM; in data set [5] (IC50 N7 with CHAPS) it was 34.7 µM.

Molecule `Cc1ccc(NC(=O)c2cc3ccccc3cc2O)c(C)c1.Cc1ccc(NC(=O)c2cc3ccccc3cc2O)c(C)c1.[Ni]` [NSC 306698] returned a CC50 in data set [1] of 32 µM. Moreover, the IC50 in [4] (read-out: IC50 2’-O with CHAPS) amounted to 49.1 µM; in data set [5] (read-out: IC50 N7 No CHAPS), 45 µM.

Take `Cc1nn(-c2ccc(S(=O)(=O)[O-])cc2)c([O-])c1N=Nc1ccc(-c2ccc(N=Nc3ccc4c(S(=O)(=O)[O-])cc(S(=O)(=O)[O-])c(N)c4c3[O-])c([O-])c2)cc1[O-].[Cu+2].[Cu+2].[H+].[H+].[H+]` [NSC 306711]: the IC50 came to 5.3 µM in data set [6]; 1.1 µM in data set [7]; 4.3 µM in [4] (read-out: IC50 2’-O with CHAPS); 0.87 µM in [5] (read-out: IC50 N7 No CHAPS); 2.3 µM in data set [5] (read-out: IC50 N7 with CHAPS); 6.9 µM in [8]. Also, the values for the IC50 in data set [9], in data set [10] and in data set [11] were 4.7 µM, 36 µM and 1.2 µM, respectively. Moreover, the “CC50 values times higher than IC50 values” in data set [1] was ~10. Besides, the CC50 in [1] came to 332 µM. The molecule further registered a concentration giving a half-maximal response (EC50) in [3] (BHK cells infected with WNV, MOI 0.1, 42 hours post-infection, plaque assay on Vero cells) of 1 µM.

As to `CN1CCN(c2ccc3[nH]c(-c4ccc5[nH]c(-c6ccc(O)cc6)nc5c4)nc3c2)CC1` [NSC 322921], the “CC50 values times higher than IC50 values” in data set [1] is reported as ~10. In addition, the CC50 at 42 h in [2] is > 500 µM. In addition, the 50% effective concentration (EC50) in data set [3] (West Nile virus, 42 h) was > 200 µM. Also, in data set [3], the “Inhibition of the WNV titer” value was “did not inhibit the WNV titer”. Besides, the IC50 in data set [4] is > 300 µM; in [5] (IC50 N7 No CHAPS), 29.9 µM; in data set [5] (IC50 N7 with CHAPS) it was 26.5 µM.

In turn, `Ic1ccc2c(c1)N(c1ccccc1)c1cc(Nc3ccc4c(c3)N(c3ccccc3)c3cc(I)ccc3N4)ccc1N2` [NSC 402959] returned a CC50 at 42 h in [2] of 14.6 µM. Also, the IC50 in data set [4] (read-out: IC50 2’-O with CHAPS) was 6.2 µM; in data set [5] (read-out: IC50 N7 No CHAPS), 9.8 µM; in [5] (read-out: IC50 N7 with CHAPS), 30.8 µM.

Take `CC1=C(Nc2c(C)cc(O)cc2O)C(=O)C=c2oc3c(c21)C(C)=C(Nc1c(C)cc(O)cc1O)C(=O)C=3` [NSC 610930]: the “CC50 values times higher than IC50 values” in [1] is on record as ~10. In data set [2], the CC50 at 42 h is 117 µM. The EC50 in data set [3] (West Nile virus, 42 h) was determined as 12.6 µM. For the same molecule, the half-inhibitory concentration (IC50) in data set [4] stood at 5.6 µM; in data set [5] (IC50 N7 No CHAPS), 4.2 µM; in [5] (IC50 N7 with CHAPS) it was 18.2 µM.

Regarding `Nc1ncnc2c1ncn2[C@@H]1O[C@H](C[C@@H](N)CC[C@H](N)C(=O)O)[C@@H](O)[C@H]1O` [SIN, sinefungin, reference compound], the “Inhibition of the N7 activity of the WNV MTase” value in [5] is on record as ~ 80%.

Source of the values: PMC4476580, “Novel Broad Spectrum Inhibitors Targeting the Flavivirus Methyltransferase” (PLoS ONE, 2015).
